Results: patent publication US9181172B2, “Rhein conjugates, preparation method thereof and their uses in producing medicines for treating diabetic nephrosis, intestinal adhesion and osteoarthritis” (priority 2005, dated 2015)
Counter-ions that a name gives are not always drawn.

Columns and labels:
Assay type in all cases: in vivo
diabetic rats = experiment: Diabetic nephrosis of obese diabetic rats (high-fat high-sugar diet plus STZ); conditions: six months, ig 65 mg/kg
Description: Animal model of diabetic rats: after one month of high-fat high-sugar diet, the rats (about 180 g) were injected by sub-pathogenic dose (25 mg/kg) of streptozotocin (STZ) to induce the occurrence of diabetes. The model has the characteristics of moderate hyperglycemia, hyperlipidemia and insulin resistance as well as pathological changes of typical diabetic nephrosis.
• 1. Conventional feedstuff control group: distilled water. • 2. Diabetes model group: distilled water. • 3. Rhein lysine diabetes treatment group: a month after STZ injection, rhein lysine complex [prepared with distilled water, intragastric infusion for rats according to 90 mg/kg (0.209 mmol/kg) dose] was administered referred to treatment group 1. • 4. Rhein sodium diabetes treatment group: a month after STZ injection, rhein sodium [prepared with distilled water, intragastric infusion for rats, according to 65 mg/kg (0.212 mmol/kg) dose] was administered, referred to treatment group 2. • 5. Rhein lysine diabetes prevention group: one week after STZ injection, rhein lysine conjugates were administered [prepared with distilled water and intragastric infusion for rats, according to 90 mg/kg (0.209 mmol/kg) dose], referred to prevention group 1. • 6. Rhein sodium diabetes prevention group: one week after STZ injection, rhein sodium were administered [prepared with distilled water and intragastric infusion for rats, according to 65 mg/kg (0.212 mmol/kg ) dose], referred to prevention group 2.

mice [1] = experiment: Xylene-induced swelling of auricle in mice; conditions: ig 40 mg/kg, 3 days
Description: Fifty male Kunming mice were selected, weighing 18-22 g each, and randomly divided into five groups, namely, model control group, aspirin group, rhein sodium group, rhein glucosamine large dose group and low dose groups. Each group had 10 mice respectively. The mice were administered with medicines by intragastric administration every day, for 0.2 ml/10 g body weight. The mice of the model control group were administered with equal volume of physiological saline, once every day, continuously administration for 3 days. After 60 minutes of the final administration, carried on test according to the method in the literature [Xu Shuyun, Methodology in Pharmacological Experiment (the 3rd version): 911]. The sweeling degree of auricle was calculated and statistical analysis was conducted.

mice [2] = experiment: Immune function in mice (clearance index, phagocytic index); conditions: ig 40 mg/kg, 3 days
Description: Fifty Kunming mice, half male and half female, weighing 18-22 g each were selected and randomly divided into five groups, namely, model control group, cyclophosphamide group, rhein sodium group, rhein glucosamine large dose group and small dose group, 10 mice for each group. The mice were administered with medicines by intragastric administration, 0.2 ml/10 g body weight, once every day and administered for 3 days in succession. After the mice were administered with medicines, 30 minutes later, test was carried on according to the method in the literature [Xu Shuyun, Methodology in Pharmacological Experiment (the 3rd version): 934]. The […] and corrected phagocytic index α were calculated, and t-test was conducted for statistical analysis.

mice [3] = experiment: Acetic acid-induced writhing response in mice; conditions: ig 40 mg/kg, 12 days
Description: Fifty Kunming mice, half male and half female, weighing 18-22 g each, were selected and randomly divided into five groups, namely, model control group, aspirin group, rhein sodium group, rhein glucosamine large dose group and small dose group, 10 mice for each group. The mice were administered with medicine by intragastric administration every day, 0.2 ml/10 g body weight, once every day, and administered for 12 days in succession. After the final administration of medicines, 30 minutes later, test was carried on according to the methods in the literature [Xu Shuyun, Methodology in Pharmacological Experiment (the 1st version): 882]. The inhibiting rate for writhing response was calculated.

For `O=C(O)c1cc(O)c2c(c1)C(=O)c1cccc(O)c1C2=O` [Rhein sodium salt, rhein sodium salt], the Urine protein (diabetic rats; preventive administration from one week after STZ) was 11.54 ± 2.98 mg/24 h, the “Kidney weight index (double kidney weight/body weight × 10^4)” value (diabetic rats; preventive administration) was 5.21 ± 0.68 and the Serum total cholesterol (diabetic rats; preventive administration) was 2.89 ± 0.31 mM. The Serum triacylglycerol (diabetic rats; preventive administration) was 1.68 ± 0.45, the “Steady blood sugar level” value (diabetic rats; preventive administration) was 6.7 ± 0.8 mmol/L and the Steady insulin level (diabetic rats; preventive administration) was 72.6 ± 3.6 uU/ml. It also gave a Weight (diabetic rats; preventive administration) of 243 ± 12 g, a blood sugar (diabetic rats; preventive administration) of 15.08 ± 5.7 mmol/L and a Urine protein (diabetic rats; treatment from a month after STZ) of 16.15 ± 7.71 mg/24 h. For the same molecule, the “Kidney weight index (double kidney weight/body weight × 10^4)” value (diabetic rats; treatment) was 6.9 ± 0.83, the Serum total cholesterol (diabetic rats; treatment) was 3.71 ± 0.63 mM and the Serum triacylglycerol (diabetic rats; treatment) was 1.66 ± 0.47. The “Steady blood sugar level” value (diabetic rats; treatment) was 5.9 ± 0.8 mmol/L, the Steady insulin level (diabetic rats; treatment) was 81 ± 4.5 uU/ml and the Weight (diabetic rats; treatment) was 229 ± 16 g. For the same molecule, the blood sugar (diabetic rats; treatment) was 17.3 ± 3.3 mmol/L, the inhibition rate (mice [1]) was 29.8% and the swelling degree of auricle (mice [1]) was 12.5 ± 2.2 mg. The “Clearance index (k)” value (mice [2]) was 0.0272 ± 0.0124, the “Phagocytic index (α)” value (mice [2]) was 4.9134 ± 0.7498 and the Inhibiting rate (mice [3]) was 37.7%. It also gave a Times of writhing (mice [3]) of 20.1 ± 8.9 per/20 min.
